Reference: ChEMBL document CHEMBL3885881, “DrugMatrix”

Organism: Rattus norvegicus
Assay: DrugMatrix - Regimen: Daily Repeat
Type: toxicity, organism-based, Sprague-Dawley
Set-up: regimen Daily Repeat, gender Male, age 6-8 weeks
Settings: in vivo, po, 54 mg/kg, route oral GAVAGE, dose level Low, vehicle .5 % CMC; for ABSOLUTE BASOPHIL / ABSOLUTE EOSINOPHIL / ABSOLUTE LYMPHOCYTE / ABSOLUTE MONOCYTE / ABSOLUTE SEGMENTED NEUTROPHIL / BASOPHIL / EOSINOPHIL / ERYTHROCYTE COUNT / HEMATOCRIT / HEMOGLOBIN / LEUKOCYTE COUNT / LYMPHOCYTE / MEAN CORPUSCULAR HEMOGLOBIN / MEAN CORPUSCULAR HEMOGLOBIN CONCENTRATION / MEAN CORPUSCULAR VOLUME / MONOCYTE / NEUTROPHIL / NUCLEATED RED BLOOD CELLS / PLATELET COUNT: tissue Blood; for ALANINE AMINOTRANSFERASE / ALBUMIN / ALKALINE PHOSPHATASE / ASPARTATE AMINOTRANSFERASE / BLOOD UREA NITROGEN / CARBON DIOXIDE / CHLORIDE / CHOLESTEROL / CREATINE PHOSPHOKINASE / CREATININE / GLUCOSE / LACTATE DEHYDROGENASE / LIPASE / PHOSPHORUS / SODIUM / TOTAL BILIRUBIN / TOTAL PROTEIN / URIC ACID: tissue Plasma

NC(N)=Nc1nc(CSCCC(N)=NS(N)(=O)=O)cs1 [FAMOTIDINE]
ABSOLUTE BASOPHIL (72 h, time 3 day): 0 CELLS/uL
ABSOLUTE EOSINOPHIL (72 h, time 3 day): 169.67 CELLS/uL
ABSOLUTE LYMPHOCYTE (72 h, time 3 day): 13320 CELLS/uL
ABSOLUTE MONOCYTE (72 h, time 3 day): 113.67 CELLS/uL
ABSOLUTE SEGMENTED NEUTROPHIL (72 h, time 3 day): 2530 CELLS/uL
BASOPHIL (72 h, time 3 day): 0%
EOSINOPHIL (72 h, time 3 day): 1%
ERYTHROCYTE COUNT (72 h, time 3 day): 5.11 x10E6/uL
HEMATOCRIT (72 h, time 3 day): 32.47%
HEMOGLOBIN (72 h, time 3 day): 12.1 G/DL
LEUKOCYTE COUNT (72 h, time 3 day): 16.13 x10E3/uL
LYMPHOCYTE (72 h, time 3 day): 81.67%
MEAN CORPUSCULAR HEMOGLOBIN (72 h, time 3 day): 23.73 pg
MEAN CORPUSCULAR HEMOGLOBIN CONCENTRATION (72 h, time 3 day): 37.27 G/DL
MEAN CORPUSCULAR VOLUME (72 h, time 3 day): 63.57 fL
MONOCYTE (72 h, time 3 day): 0.67%
NEUTROPHIL (72 h, time 3 day): 16.67%
NUCLEATED RED BLOOD CELLS (72 h, time 3 day): 0 /100WBC
PLATELET COUNT (72 h, time 3 day): 1110 x10E3/uL
ALANINE AMINOTRANSFERASE (72 h, time 3 day): 57 u/L
ALBUMIN (72 h, time 3 day): 4.17 G/DL
ALKALINE PHOSPHATASE (72 h, time 3 day): 343.67 u/L
ASPARTATE AMINOTRANSFERASE (72 h, time 3 day): 85 u/L
BLOOD UREA NITROGEN (72 h, time 3 day): 17 mg/dL
CARBON DIOXIDE (72 h, time 3 day): 27.33 mmol/L
CHLORIDE (72 h, time 3 day): 106.67 MEQ/L
CHOLESTEROL (72 h, time 3 day): 74.67 mg/dL
CREATINE PHOSPHOKINASE (72 h, time 3 day): 218 u/L
CREATININE (72 h, time 3 day): 0.19 mg/dL
GLUCOSE (72 h, time 3 day): 162 mg/dL
LACTATE DEHYDROGENASE (72 h, time 3 day): 62.33 u/L
LIPASE (72 h, time 3 day): 9 u/L
PHOSPHORUS (72 h, time 3 day): 14.6 mg/dL
SODIUM (72 h, time 3 day): 148.03 MEQ/L
TOTAL BILIRUBIN (72 h, time 3 day): 0.2 mg/dL
TOTAL PROTEIN (72 h, time 3 day): 5.87 G/DL
URIC ACID (72 h, time 3 day): 1.13 mg/dL
ABSOLUTE BASOPHIL (120 h, time 5 day): 0 CELLS/uL
ABSOLUTE EOSINOPHIL (120 h, time 5 day): 121 CELLS/uL
ABSOLUTE LYMPHOCYTE (120 h, time 5 day): 12766.33 CELLS/uL
ABSOLUTE MONOCYTE (120 h, time 5 day): 233 CELLS/uL
ABSOLUTE SEGMENTED NEUTROPHIL (120 h, time 5 day): 713 CELLS/uL
BASOPHIL (120 h, time 5 day): 0%
EOSINOPHIL (120 h, time 5 day): 1%
ERYTHROCYTE COUNT (120 h, time 5 day): 5.42 x10E6/uL
HEMATOCRIT (120 h, time 5 day): 34.9%
HEMOGLOBIN (120 h, time 5 day): 13.43 G/DL
LEUKOCYTE COUNT (120 h, time 5 day): 13.83 x10E3/uL
LYMPHOCYTE (120 h, time 5 day): 92%
MEAN CORPUSCULAR HEMOGLOBIN (120 h, time 5 day): 24.87 pg
MEAN CORPUSCULAR HEMOGLOBIN CONCENTRATION (120 h, time 5 day): 38.5 G/DL
MEAN CORPUSCULAR VOLUME (120 h, time 5 day): 64.63 fL
MONOCYTE (120 h, time 5 day): 1.67%
NEUTROPHIL (120 h, time 5 day): 5.33%
NUCLEATED RED BLOOD CELLS (120 h, time 5 day): 0 /100WBC
PLATELET COUNT (120 h, time 5 day): 1325.67 x10E3/uL
ALANINE AMINOTRANSFERASE (120 h, time 5 day): 55.33 u/L
ALBUMIN (120 h, time 5 day): 4.33 G/DL
ALKALINE PHOSPHATASE (120 h, time 5 day): 326.67 u/L
ASPARTATE AMINOTRANSFERASE (120 h, time 5 day): 90.67 u/L
BLOOD UREA NITROGEN (120 h, time 5 day): 18 mg/dL
CARBON DIOXIDE (120 h, time 5 day): 24.33 mmol/L
CHLORIDE (120 h, time 5 day): 106.33 MEQ/L
CHOLESTEROL (120 h, time 5 day): 62.67 mg/dL
CREATINE PHOSPHOKINASE (120 h, time 5 day): 662.67 u/L
CREATININE (120 h, time 5 day): 0.19 mg/dL
GLUCOSE (120 h, time 5 day): 182.67 mg/dL
LACTATE DEHYDROGENASE (120 h, time 5 day): 190.67 u/L
LIPASE (120 h, time 5 day): 8 u/L
PHOSPHORUS (120 h, time 5 day): 14.57 mg/dL
SODIUM (120 h, time 5 day): 146.63 MEQ/L
TOTAL BILIRUBIN (120 h, time 5 day): 0.2 mg/dL
TOTAL PROTEIN (120 h, time 5 day): 6.07 G/DL
URIC ACID (120 h, time 5 day): 1.6 mg/dL
